From patent US9694016B2 (Novartis AG, priority 2013, dated 2017) come the findings set out here.

Molecules are shown by their SMILES.

For the first assay, the target named is b-Raf (V600E) (Homo sapiens (Human), UniProt P15056, V600E). As to conditions: read-out: b-Raf IC-50; AlphaScreen, 60 min pre-incubation, 3 hours reaction. On the technique in general: Alpha assays give light when donor and acceptor beads are brought close together.
b-Raf (V600E), sequence (P15056 whole entry V600E): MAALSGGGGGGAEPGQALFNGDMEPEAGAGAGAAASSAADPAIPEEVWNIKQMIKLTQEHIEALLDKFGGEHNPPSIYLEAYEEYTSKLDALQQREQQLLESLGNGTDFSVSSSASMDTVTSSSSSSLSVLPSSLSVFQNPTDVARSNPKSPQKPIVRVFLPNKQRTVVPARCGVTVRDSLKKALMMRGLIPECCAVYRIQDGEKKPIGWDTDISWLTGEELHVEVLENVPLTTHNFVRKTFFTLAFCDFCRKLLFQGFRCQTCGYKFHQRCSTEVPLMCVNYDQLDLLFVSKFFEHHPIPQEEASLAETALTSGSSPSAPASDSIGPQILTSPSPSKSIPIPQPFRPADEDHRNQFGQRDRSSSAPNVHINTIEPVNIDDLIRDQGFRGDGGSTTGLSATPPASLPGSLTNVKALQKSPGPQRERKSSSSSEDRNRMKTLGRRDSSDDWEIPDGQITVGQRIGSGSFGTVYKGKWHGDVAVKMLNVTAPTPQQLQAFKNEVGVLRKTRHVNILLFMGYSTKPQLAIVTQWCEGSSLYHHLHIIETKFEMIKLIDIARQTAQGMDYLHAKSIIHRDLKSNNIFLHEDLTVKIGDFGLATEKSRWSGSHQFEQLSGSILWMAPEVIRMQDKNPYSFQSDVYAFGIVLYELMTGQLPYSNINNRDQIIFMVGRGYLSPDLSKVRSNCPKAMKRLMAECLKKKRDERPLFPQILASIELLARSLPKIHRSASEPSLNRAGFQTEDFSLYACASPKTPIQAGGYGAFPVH
As for `Cc1ccc(NC(=O)c2ccnc(C(C)(F)F)c2)cc1-c1cc(N2CCOCC2)c(OCCO)nn1` [Example 587, 2-(1,1-difluoroethyl)-N-(3-(6-(2-hydroxyethoxy)-5-morpholinopyridazin-3-yl)-4-methylphenyl)isonicotinamide], the IC50 was found to be 1.1 nM. With `CCOc1nnc(-c2cc(NC(=O)c3ccnc(C(C)(F)F)c3)ccc2C)cc1N1CCOCC1` [Example 565, 2-(1,1-difluoroethyl)-N-(3-(6-ethoxy-5-morpholinopyridazin-3-yl)-4-methylphenyl)isonicotinamide], the IC50 came to 1.3 nM.

Consider `Cc1ccc(NC(=O)c2ccnc(C(C)(F)F)c2)cc1-c1cc(N2CCOCC2)nc(N2CC(O)C2)n1` [Example 772, 2-(1,1-difluoroethyl)-N-(3-(2-(3-hydroxyazetidin-1-yl)-6-morpholinopyrimidin-4-yl)-4-methylphenyl)isonicotinamide], for which the IC50 is 1.9 nM.

Take `Cc1ccc(NC(=O)c2ccnc(C(C)(C)C#N)c2)cc1-c1cc(N2CCOCC2)nc(NC(C)(C)CO)n1` [Example 751, 2-(2-cyanopropan-2-yl)-N-(3-(2-((1-hydroxy-2-methylpropan-2-yl)amino)-6-morpholinopyrimidin-4-yl)-4-methylphenyl)isonicotinamide]: the IC50 came to 1.4 nM. Same read-out and setting: then `CCOc1nnc(-c2cc(NC(=O)c3ccnc(C(C)(C)C#N)c3)ccc2C)cc1N1CCOCC1` [Example 573, 2-(2-cyanopropan-2-yl)-N-(3-(6-ethoxy-5-morpholinopyridazin-3-yl)-4-methylphenyl)isonicotinamide], with 0.8 nM; and `Cc1ncc(NC(=O)c2ccnc(C(C)(C)C#N)c2)cc1-c1cc(N2CCOCC2)nc(NC[C@H](C)O)n1` [Example 738, (S)-2-(2-cyanopropan-2-yl)-N-(5-(2-((2-hydroxypropyl)amino)-6-morpholinopyrimidin-4-yl)-6-methylpyridin-3-yl)isonicotinamide], with 33.2 nM.

Staying with this assay, now noted: read-out: b-Raf IC-50; AlphaScreen, 60 min pre-incubation, reaction 3 hours at room temperature.
As to `Cc1ccc(NC(=O)c2ccnc(C(F)(F)F)c2)cc1-c1cc(NCC2CCOC2)nc(N2CCOCC2)c1` (stereo not drawn) [Example 1055, N-(4-methyl-3-(2-morpholino-6-(((tetrahydrofuran-3-yl)methyl)amino)pyridin-4-yl)phenyl)-2-(trifluoromethyl)isonicotinamide], the IC50 stood at 1.17 nM. Still for that read-out and setting: the figure for `Cc1ccc(NC(=O)c2ccnc(C(F)F)c2)cc1-c1cc(OCCO)nc(N2CCOCC2)c1` [Example 1160, 2-(difluoromethyl)-N-(3-(2-(2-hydroxyethoxy)-6-morpholinopyridin-4-yl)-4-methylphenyl)isonicotinamide] is 0.55 nM; for `Cc1ncc(NC(=O)c2ccnc(C(F)F)c2)cc1-c1cc(NCCO)nc(N2CCOC[C@H]2C)c1` [Example 1141, (R)-2-(difluoromethyl)-N-(2′-((2-hydroxyethyl)amino)-2-methyl-6′-(3-methylmorpholino)-[3,4′-bipyridin]-5-yl)isonicotinamide] it is 15.7 nM.

With `Cc1ccc(C(=O)Nc2cccc(C(F)(F)F)c2)cc1-c1cc(N2CCOCC2)c2nccn2n1` [Example 888, 4-methyl-3-(8-morpholinoimidazo[1,2-b]pyridazin-6-yl)-N-(3-(trifluoromethyl)phenyl)benzamide], the IC50 was 1.6 nM. Take `Cc1ncc(NC(=O)c2cccc(C(F)(F)F)c2)cc1-c1cc(N2CCOCC2)c2nccn2c1` [Example 884, N-(6-methyl-5-(8-morpholinoimidazo[1,2-a]pyridin-6-yl)pyridin-3-yl)-3-(trifluoromethyl)benzamide]: the IC50 worked out at 19.7 nM. On the same count and under the same terms, then `CCC(F)(F)c1cc(C(=O)Nc2cnc(C)c(-c3cc(N4CCOCC4)c(S(C)(=O)=O)nn3)c2)ccn1` [Example 925, 2-(1,1-difluoropropyl)-N-(6-methyl-5-(6-(methylsulfonyl)-5-morpholinopyridazin-3-yl)pyridin-3-yl)isonicotinamide], with 12.2 nM. As for `Cc1ncc(NC(=O)c2ccnc(C3CC3)c2)cc1-c1cc(NCCO)nc(N2CCOCC2)c1` [Example 1057, 2-cyclopropyl-N-(2′-((2-hydroxyethyl)amino)-2-methyl-6′-morpholino-[3,4′-bipyridin]-5-yl)isonicotinamide], the IC50 came to 4.12 nM. Same read-out and setting: then `Cc1ncc(NC(=O)c2cccc(C(F)(F)F)c2)cc1-c1cnc(CC2(O)CCOCC2)c(N2CCOCC2)c1` [Example 993, N-(6′-((4-hydroxytetrahydro-2H-pyran-4-yl)methyl)-2-methyl-5′-morpholino-[3,3′-bipyridin]-5-yl)-3-(trifluoromethyl)benzamide], with 9.66 nM. The same measure, in the same setting: then `Cc1ccc(NC(=O)c2ccnc(S(C)(=O)=O)c2)cc1-c1cc(N2CCOCC2)nc(N2CC(O)C2)c1` [Example 1097, N-(3-(2-(3-hydroxyazetidin-1-yl)-6-morpholinopyridin-4-yl)-4-methylphenyl)-2-(methylsulfonyl)isonicotinamide], with 3.32 nM.

Still in this assay, the particulars now being: read-out: b-Raf IC-50; Table 2; AlphaScreen, 3 hours reaction.
As for `Cc1ccc(NC(=O)c2cccc(OC(F)(F)F)c2)cc1-c1cc(N2CCOCC2)nc(N2CCOCC2)n1` [Example 22, N-(3-(2,6-dimorpholinopyrimidin-4-yl)-4-methylphenyl)-3-(trifluoromethoxy)benzamide], the IC50 is 0.7 nM. On the same count and under the same terms, the figure for `Cn1cc(-c2cc(NC(=O)c3ccnc(C(C)(F)F)c3)ccc2F)cc(N2CCOCC2)c1=O` [Example 419] is 4.3 nM; for `Cc1ccc(NC(=O)c2cccnn2)cc1-c1ccnc(N2CCOCC2)c1` [Example 67, N-(4-methyl-3-(2-morpholinopyridin-4-yl)phenyl)pyridazine-3-carboxamide] it is 500 nM; for `Cc1ncc(NC(=O)c2cccc(C(F)(F)F)c2)cc1-c1cnc(OC2CNC2)c(N2CCOCC2)c1` [Example 325, N-(6′-(azetidin-3-yloxy)-2-methyl-5′-morpholino-[3,3′-bipyridin]-5-yl)-3-(trifluoromethyl)benzamide] it is 300 nM.

As to `Cc1ccc(C(=O)Nc2ccccc2)cc1-c1cc(N2CCOCC2)c(=O)n(C)c1` [Example 429, 4-methyl-3-(1-methyl-5-morpholino-6-oxo-1,6-dihydropyridin-3-yl)-N-phenylbenzamide], the IC50 is 33.7 nM.

Consider `Cc1ncc(NC(=O)c2cccc(C(F)(F)F)c2)cc1-c1cnc(C#N)c(N2CCOCC2)c1` [Example 222, N-(6′-cyano-2-methyl-5′-morpholino-[3,3′-bipyridin]-5-yl)-3-(trifluoromethyl)benzamide], for which the IC50 is 3.8 nM. Same read-out and setting: then `CCOc1ncc(-c2cc(NC(=O)c3cccc(-c4nnco4)c3)cnc2C)cc1N1CCOCC1` [Example 244, N-(6′-ethoxy-2-methyl-5′-morpholino-[3,3′-bipyridin]-5-yl)-3-(1,3,4-oxadiazol-2-yl)benzamide], with 7.6 nM.

As for `Cc1ccc(NC(=O)c2cc(C(C)C)on2)cc1-c1cc(N2CCOCC2)c(=O)n(C)c1` [Example 371, 5-isopropyl-N-(4-methyl-3-(1-methyl-5-morpholino-6-oxo-1,6-dihydropyridin-3-yl)phenyl)isoxazole-3-carboxamide], the IC50 is 0.8 nM. The same measure, in the same setting: the figure for `Cc1ncc(NC(=O)c2ccnc(C(C)(C)C#N)c2)cc1-c1cnc(OC2CCOCC2)c(N2CCOCC2)c1` [Example 272, 2-(2-cyanopropan-2-yl)-N-(2-methyl-5′-morpholino-6′-((tetrahydro-2H-pyran-4-yl)oxy)-[3,3′-bipyridin]-5-yl)isonicotinamide] is 6.3 nM.
